Experimental data: patent EP0306167A2, “Stabilization of enzymes by inhibiting proteolytic enzyme contaminants” (TECHNICON INSTRUMENTS CORPORATION(a Delaware corporation), priority 1987, dated 1989)
“Also recorded” adds a separate entry of the source. Like-named read-outs stand apart in the source and are kept apart here.

Experiments:
[1] = tested on: phosphoenol pyruvate carboxylase; test: Stability of phosphoenol pyruvate carboxylase on storage with protease inhibitors (activity assay on TECHNICON RA-1000); format: biochemical; details: for Percent Activity Remaining at Time (hrs.): about 20 mg/ml enzyme, Benzamidine 4mM, p-Amino benzamidine 4mM, TPCK 0.5mM, Soya Bean Trypsin Inhibitor 10 mg/ml, Egg white Trypsin Inhibitor 10 mg/ml, BSA 20mg/ml, Aprotinin 0.5 mg/ml, PMSF 1 mM
Procedure: The activity assays to determine the stability of phosphoenol pyruvate carboxylase were done on a TECHNICON RA-1000 clinical analyzer in accordance with established protocols for such analysis. (TECHNICON RA-1000 is a registered trademark of Technicon Instruments Corporation, Tarrytown, N.Y.) In accordance with such protocol, the enzyme solution, R₂, was placed in the sample cup. The other constituents of the assay mixture, R₁, were placed in the reagent boat. 10 µl of R₂ were mixed with 350 µl of R₁. The reaction was done at 37°C and there was a 30 second incubation period before the readings were taken. The reported activity remaining refers to the percentage of the activity determined when fresh solutions were made initially.
The solid enzyme samples were dissolved in 50 mM Hepes, pH 7.0 containing 0.1% benzoic and .01% gentamicin (R₂). The stability study was done in R₂ containing about 20 mg/ml enzyme at room temperature. The ratio of soya bean trypsin inhibitor to phosphoenol pyruvate by weight mg/ml was 10:20. The specific activity of soya bean was 7000 BAEE inhibitor units/mg and that of phosphoenol pyruvate was one unit/mg. The components of the activity assay were in R₁ as NADH, 1.3 x 10⁻⁴M; phosphoenol pyruvate, 2.5 x 10⁻³M; magnesium acetate, 1.06 x 10⁻²M and NaHCO₃, 5 x 10⁻³M; were in 104 mM tris-acetate pH 8.3 (at room temperature).
The samples were stored at room temperature in 50 mM Hepes buffer pH 7.0 containing 0.1% benzoate acid .01% gentamycin. […]

PGM/PAGM enzyme solution = test: Stability of PGM/PAGM enzyme solution on storage with protease inhibitors (coupled glucose-6-phosphate dehydrogenase rate assay at 340 nm); format: biochemical, Porcine; details: for effect on PGM/PAGM activity (in words): TPCK 2mM; for stabilizing effect compared between inhibitors (in words) / time enzyme activity was protected: DEAE-Tris acryl purified preparation, 4°C; for stabilizing effect compared between inhibitors (in words): pH 7.5, aprotinin .5 mg/ml, leupeptin 0.5 mg/ml, α,α′-bipyridal 2 mM; for time enzyme activity was protected: 50 mM imidazole chloride pH 7.5, p-aminobenzamidine 5mM, benzamidine 5mM
Procedure: The presence of proteases was detected pursuant to the protocol discussed above. The quantitative assay for protease activity was done with N-α - benzoyl-L-arginine-p-nitroanalide as a substrate by a published procedure (H. Fritz, I. Truntschold and E. Werle; "Methods of Enzymatic Analysis", Ed. H. Bergmeyer, Vol. II, Academic Press, N.4. 1974). The method consist of (1) 0.2M triethanolamine buffer (pH 7.8) with 20 mM CaCl₂, (2) trypsin standard in 1 mM HCl, (3) substrate solution, 2.2 mM in water. The sensitivity can be enhanced four-fold if the concentration of the substrate was increased five times. A clear solution of the substrate was obtained by placing it in a boiling water bath for 5 minutes. The reaction mixture consisted of a .675 ml buffer and 0.325 ml substrate solution. The rate was measured at 405 nm at 37°C on a DU 8 spectrophotometer from Beckman Instruments, Inc. It was possible to detect protease activity equivalent to 1 mg/L trypsin when the standard trypsin was activity of 11000 u/mg with substrate N-α-benzoyl-L-arginine p-nitroanalide. The activity of the PGM/PAGM enzyme solution was determined using the following reaction mixture. NAD⁺, 10⁻³M; glucose-1-phosphate, 2x10⁻⁴M; glucose-1,6-diphosphate, 10⁻⁵M; Mg Acetate, 2 x 10⁻³M; EDTA, 2 x 10⁻⁴M and 1 u/ml glucose-6-phosphate dehydrogenase in 50 mM imidazole acetate, pH 7.5. The reaction was started by adding an aliquot of the enzyme solution and the rate was measured 37°C at 340 nm on a DU-8 spectro- photometer. This method is essentially similar to the literature procedures (W. Ray and E. Peck, The Enzymes, 6, 407, 1972. H. Bergmeyer, "Methods of Enzymatic Analysis" Ed. H. Bergmeyer Vol. I, Academic Press, N.Y. 1974).
A series of experiments were done to determine the stabilizing effect of various inhibitors. In one experiment the enzyme preparation included was 30-70% ammonium sulfate fraction. The effects of soya bean trypsin inhibitor (10 mg/ml), tosyl phenyl chloromethyl ketone (TPCK) (2mM) and α-antitrypsin inhibitor (2 mg/ml) were studied at pH 5.0 and 7.5, in 50 mM imidazole acetate buffer; 0.2 mM EDTA, 10 mM magnesium acetate. The stability was done at two pH values as the formation and dissociation of the inhibitor complex with trypsin is pH dependent. […] PAGM enzyme may also have serine residues at the active site. […] There was some protection afforded by α-antitrypsin inhibitor over longer periods of time at pH 7.5.
In another experiment, the enzyme preparation after ammonium sulfate fractionation was purified through DEAE-Tris acryl column chromatography. […] These trace amounts of proteases were sufficient to cause denaturation of the enzyme. A stability study using various inhibitors of proteases: aprotinin (.5 mg/ml), soybean trypsin inhibitor (5 mg/ml), p-aminobenzamidine (5mM), benzamidine (5mM), α,α′-bipyridal (2 mM) and leupeptin (0.5 mg/ml) was done. The enzyme was stored at 4°C in 50 mM imidazole chloride, 2 mM Mg acetate and .2 mM EDTA, pH 7.5. The activity was assayed at different times. […] The enzymes were stable in the presence of soya bean trypsin inhibitor for one week.

[2] = 20 Hrs, absence of (NH₄)₂SO₄, PMSF 1mM, α-Antitrypsin Inhibitor 5 mg/ml, p-Nitrophenyl-p-Guanidinobenzoate 0.1mg/ml, Ovomucoid 10 mg/ml, D-Tryptophan methyl ester 5mM, 4-Phenyl butylamine 10mM, D-Arginine 10mM, D-phenylalanine 5mM, control 35
[3] = 25 Hrs, absence of (NH₄)₂SO₄, PMSF 1mM, α-Antitrypsin Inhibitor 5 mg/ml, p-Nitrophenyl-p-Guanidinobenzoate 0.1mg/ml, Ovomucoid 10 mg/ml, D-Tryptophan methyl ester 5mM, 4-Phenyl butylamine 10mM, D-Arginine 10mM, D-phenylalanine 5mM, control 26
[4] = 2.5 hrs at room temperature in R2 (50 mM Hepes pH 7.0), control 80
[5] = 5 hrs at room temperature in R2 (50 mM Hepes pH 7.0), control 80
[6] = 23 hrs at room temperature in R2 (50 mM Hepes pH 7.0), control 25
[7] = NaCl up to 200 mM replacing (NH₄)₂SO₄ with 10 mg/ml ovomucoid, phosphoenol pyruvate 5 mM
[8] = 20 Hrs, in presence of (NH₄)₂SO₄ (50 mM), inhibitor concentrations as without salt (PMSF 1mM, α-Antitrypsin Inhibitor 5 mg/ml, p-Nitrophenyl-p-Guanidinobenzoate 0.1mg/ml, Ovomucoid 10 mg/ml, D-Tryptophan methyl ester 5mM)
[9] = 25 Hrs, in presence of (NH₄)₂SO₄ (50 mM), inhibitor concentrations as without salt (PMSF 1mM, α-Antitrypsin Inhibitor 5 mg/ml, p-Nitrophenyl-p-Guanidinobenzoate 0.1mg/ml, Ovomucoid 10 mg/ml, D-Tryptophan methyl ester 5mM)

N[C@H](Cc1ccccc1)C(=O)O [D-phenylalanine]
Percent Activity Remaining at Time (Hrs.) [1, 2]: 57% | Percent Activity Remaining at Time (Hrs.) [1, 3]: 51%

NCCCCc1ccccc1 [4-Phenyl butylamine]
Percent Activity Remaining at Time (Hrs.) [1, 2]: 57% | Percent Activity Remaining at Time (Hrs.) [1, 3]: 51%

[Cl-].[Na+] [NaCl]
stabilizing effect on phosphoenol pyruvate carboxylase (in words) [1]: negligible

Cc1ccc(S(=O)(=O)N[C@@H](Cc2ccccc2)C(=O)CCl)cc1 [TPCK]
Percent Activity Remaining at Time (hrs.) [1, 4]: 74% | Percent Activity Remaining at Time (hrs.) [1, 5]: 68% | Percent Activity Remaining at Time (hrs.) [1, 6]: 28% | effect on PGM/PAGM activity (in words) (PGM/PAGM enzyme solution; pH 5.0, 30-70% ammonium sulfate fraction): destroyed the activity sooner than the control | effect on PGM/PAGM activity (in words) (PGM/PAGM enzyme solution; pH 7.5, 30-70% ammonium sulfate fraction, soya bean trypsin inhibitor 10 mg/ml, α-antitrypsin inhibitor 2 mg/ml): did not show any additional inactivation

C=C(OP(=O)(O)O)C(=O)O [phosphoenol pyruvate]
stabilizing effect on phosphoenol pyruvate carboxylase (in words) [1, 7]: unstable

CC(=O)N[C@@H](CC(C)C)C(=O)N[C@@H](CC(C)C)C(=O)N[C@H](C=O)CCCNC(=N)N [Leupeptin]
stabilizing effect compared between inhibitors (in words) (PGM/PAGM enzyme solution): equally effective

COC(=O)[C@H](N)Cc1c[nH]c2ccccc12 [D-Tryptophan methyl ester]
Percent Activity Remaining at Time (Hrs.) [1, 2]: 32% | Percent Activity Remaining at Time (Hrs.) [1, 8]: 68% | Percent Activity Remaining at Time (Hrs.) [1, 3]: 26% | Percent Activity Remaining at Time (Hrs.) [1, 9]: 71%

O=S(=O)(F)Cc1ccccc1 [PMSF, phenyl methyl sulfonyl fluoride]
Percent Activity Remaining at Time (Hrs.) [1, 2]: 71% | Percent Activity Remaining at Time (Hrs.) [1, 8]: 90% | Percent Activity Remaining at Time (Hrs.) [1, 3]: 61% | Percent Activity Remaining at Time (Hrs.) [1, 9]: 88% | Percent Activity Remaining at Time (hrs.) [1, 4]: 87% | Percent Activity Remaining at Time (hrs.) [1, 5]: 89% | Percent Activity Remaining at Time (hrs.) [1, 6]: 56% | stabilizing effect on phosphoenol pyruvate carboxylase (in words) [1, 7]: especially effective; also recorded: most effective stabilizer | original activity ([1]; PMSF in combination with ammonium sulfate, for 24 hours): 88% | Effectiveness ([1]; protection of PEPC activity, comparison of all effective inhibitors): 24 to 48 h

N=C(N)c1ccccc1 [Benzamidine]
Percent Activity Remaining at Time (hrs.) [1, 4]: 83% | Percent Activity Remaining at Time (hrs.) [1, 5]: 83% | Percent Activity Remaining at Time (hrs.) [1, 6]: 32% | time enzyme activity was protected (PGM/PAGM enzyme solution): 5 days

c1ccc(-c2ccccn2)nc1 [α,α′-bipyridal]
stabilizing effect compared between inhibitors (in words) (PGM/PAGM enzyme solution): least effective

N=C(N)c1ccc(N)cc1 [p-Amino benzamidine]
Percent Activity Remaining at Time (hrs.) [1, 4]: 75% | Percent Activity Remaining at Time (hrs.) [1, 5]: 75% | Percent Activity Remaining at Time (hrs.) [1, 6]: 28% | time enzyme activity was protected (PGM/PAGM enzyme solution): 14 days

N=C(N)NCCC[C@@H](N)C(=O)O [D-Arginine]
Percent Activity Remaining at Time (Hrs.) [1, 2]: 30% | Percent Activity Remaining at Time (Hrs.) [1, 3]: 24%

N=C(N)Nc1ccc(C(=O)Oc2ccc([N+](=O)[O-])cc2)cc1 [p-Nitrophenyl-p-Guanidinobenzoate]
Percent Activity Remaining at Time (Hrs.) [1, 2]: 42% | Percent Activity Remaining at Time (Hrs.) [1, 8]: 60% | Percent Activity Remaining at Time (Hrs.) [1, 3]: 36% | Percent Activity Remaining at Time (Hrs.) [1, 9]: 57%
